Source: PubChem BioAssay AID248 (DTP/NCI, 2004)
Values joined by “and” are separate entries in the source; they are usually repeats but may differ in a detail not shown here. Identical values can stand only once. Inconclusive results and toxic doses are left out. Cut-off read from the data, not from the text of the source: active = T/C of 150% or more; inactive = T/C below 125%.

System: L1210 leukemia ip in BDF1 mice, survival T/C
Test: NCI In Vivo Anticancer Drug Screen. Data for tumor model L1210 Leukemia (intraperitoneal) in B6D2F1 (BDF1) mice
Details: endpoint: mean survival time, higher = longer survival
How it was run: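 Mice bearing the transplanted tumor received compound or vehicle. Survival of the treated group was divided by that of the vehicle-treated control group to give the ratio.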

[1] = dose: 100.0 mg/kg/injection, schedule: Q04DX003 (ip), vehicle: saline with Tween-80
[2] = dose: 200.0 mg/kg/injection, schedule: Q04DX003 (ip), vehicle: saline with Tween-80
[3] = dose: 400.0 mg/kg/injection, schedule: Q04DX002 (ip), vehicle: saline with Tween-80
[4] = dose: 400.0 mg/kg/injection, schedule: Q04DX003 (ip), vehicle: saline with Tween-80
[5] = dose: 50.0 mg/kg/injection, schedule: Q01DX001 (ip), vehicle: carboxymethylcellulose (CMC)
[6] = dose: 100.0 mg/kg/injection, schedule: Q01DX001 (ip), vehicle: carboxymethylcellulose (CMC)
[7] = dose: 200.0 mg/kg/injection, schedule: Q01DX001 (ip), vehicle: carboxymethylcellulose (CMC)
[8] = dose: 400.0 mg/kg/injection, schedule: Q01DX001 (ip), vehicle: carboxymethylcellulose (CMC)
[9] = dose: 100.0 mg/kg/injection, schedule: Q01DX009 (ip), vehicle: saline with Tween-80
[10] = dose: 200.0 mg/kg/injection, schedule: Q01DX009 (ip), vehicle: saline with Tween-80
[11] = dose: 400.0 mg/kg/injection, schedule: Q01DX009 (ip), vehicle: saline with Tween-80
[12] = dose: 100.0 mg/kg/injection, schedule: Q01DX001 (ip), vehicle: saline with Tween-80
[13] = dose: 200.0 mg/kg/injection, schedule: Q01DX001 (ip), vehicle: saline with Tween-80
[14] = dose: 400.0 mg/kg/injection, schedule: Q01DX001 (ip), vehicle: saline with Tween-80

Measured: T/C

c1ccc(C(c2ccccc2)[Si](c2ccccc2)(C(c2ccccc2)c2ccccc2)C(c2ccccc2)c2ccccc2)cc1
inactive: dose: 25.6 mg/kg/injection, schedule: Q04DX002 (ip), vehicle: saline with Tween-80 96 % of control | dose: 37.5 mg/kg/injection, schedule: Q01DX009 (ip), vehicle: Klucel (hydroxypropylcellulose) (HPC) 93 % of control | dose: 64.0 mg/kg/injection, schedule: Q04DX002 (ip), vehicle: saline with Tween-80 100 % of control | dose: 75.0 mg/kg/injection, schedule: Q01DX009 (ip), vehicle: Klucel (hydroxypropylcellulose) (HPC) 88 % of control | [1] 94 % of control | dose: 160.0 mg/kg/injection, schedule: Q04DX002 (ip), vehicle: saline with Tween-80 93 % of control | [2] 100 % of control | [3] 104 % of control | [4] 94 % of control

CCSC1OC(COS(C)(=O)=O)C(OS(C)(=O)=O)C1NC(C)=O (centres undefined)
inactive: [5] 97 % of control | [6] 97 % of control | [7] 92 % of control | [8] 97 % of control

CN1CCC/C1=N\c1nn[nH]n1
inactive: dose: 100.0 mg/kg/injection, schedule: Q01DX001 (ip), vehicle: Klucel (hydroxypropylcellulose) (HPC) 106 % of control | dose: 200.0 mg/kg/injection, schedule: Q01DX001 (ip), vehicle: Klucel (hydroxypropylcellulose) (HPC) 97 % of control | dose: 400.0 mg/kg/injection, schedule: Q01DX001 (ip), vehicle: Klucel (hydroxypropylcellulose) (HPC) 93 % of control

COc1cc(C=O)ccc1OC(=O)Nc1cccc(Cl)c1Cl
inactive: [9] 90 % of control | [10] 90 % of control | [11] 92 % of control

CCOC(=O)c1cc(OCC)c2c(ccc3ccccc32)n1
inactive: [6] 97 % of control | dose: 100.0 mg/kg/injection, schedule: Q01DX009 (ip), vehicle: carboxymethylcellulose (CMC) 95 % of control and 103 % of control | dose: 100.0 mg/kg/injection, schedule: Q04DX002 (ip), vehicle: carboxymethylcellulose (CMC) 102 % of control and 105 % of control | dose: 100.0 mg/kg/injection, schedule: Q04DX003 (ip), vehicle: carboxymethylcellulose (CMC) 103 % of control | [7] 112 % of control | dose: 200.0 mg/kg/injection, schedule: Q01DX009 (ip), vehicle: carboxymethylcellulose (CMC) 98 % of control and 106 % of control | dose: 200.0 mg/kg/injection, schedule: Q04DX002 (ip), vehicle: carboxymethylcellulose (CMC) 97 % of control and 102 % of control | dose: 200.0 mg/kg/injection, schedule: Q04DX003 (ip), vehicle: carboxymethylcellulose (CMC) 97 % of control | [8] 100 % of control | dose: 400.0 mg/kg/injection, schedule: Q01DX009 (ip), vehicle: carboxymethylcellulose (CMC) 98 % of control and 101 % of control | dose: 400.0 mg/kg/injection, schedule: Q04DX002 (ip), vehicle: carboxymethylcellulose (CMC) 96 % of control and 97 % of control | dose: 400.0 mg/kg/injection, schedule: Q04DX003 (ip), vehicle: carboxymethylcellulose (CMC) 102 % of control

O=C1NC(=O)C(c2ccccc2)(c2ccsc2)N1 (centres undefined)
inactive: dose: 100.0 mg/kg/injection, schedule: Q01DX001 (ip), vehicle: saline 95 % of control | dose: 200.0 mg/kg/injection, schedule: Q01DX001 (ip), vehicle: saline 90 % of control | dose: 400.0 mg/kg/injection, schedule: Q01DX001 (ip), vehicle: saline 95 % of control

CC(C)(C)C(=O)CC(O)(C(F)(F)Cl)C(F)(F)Cl
inactive: [1] 107 % of control | [2] 91 % of control

CC(C)CCOC(=O)c1ccccc1OC(=O)Nc1ccc(Cl)cc1[N+](=O)[O-]
inactive: [12] 102 % of control | [9] 99 % of control and 89 % of control | dose: 100.0 mg/kg/injection, schedule: Q04DX002 (ip), vehicle: saline with Tween-80 94 % of control and 103 % of control | [1] 91 % of control | [13] 90 % of control | [10] 86 % of control and 89 % of control | dose: 200.0 mg/kg/injection, schedule: Q04DX002 (ip), vehicle: saline with Tween-80 97 % of control and 88 % of control | [2] 91 % of control | [14] 88 % of control | [11] 89 % of control | [3] 100 % of control and 104 % of control | [4] 99 % of control

CCCC(CCCC(=O)O)C(=O)O (centres undefined)
inactive: [5] 86 % of control | [6] 90 % of control | [7] 92 % of control | [8] 90 % of control

CC(C)=CCCC(C)C1CCC2C3CC=C4CC(O)CCC4(C)C3CCC12C (centres undefined)
inactive: [12] 91 % of control | [13] 95 % of control | [14] 95 % of control

C=CCSc1nc(N)nc2c1nc(SCC=C)n2C1OC(CO)C(O)C1O (centres undefined)
inactive: dose: 50.0 mg/kg/injection, schedule: Q01DX005 (ip), vehicle: saline 93 % of control | dose: 100.0 mg/kg/injection, schedule: Q01DX005 (ip), vehicle: saline 102 % of control | dose: 200.0 mg/kg/injection, schedule: Q01DX005 (ip), vehicle: saline 100 % of control

CC1(C)CC(=O)C2=C(C1)Nc1ccccc1NC2c1ccccc1 (centres undefined)
inactive: dose: 50.0 mg/kg/injection, schedule: Q04DX002 (ip), vehicle: Klucel (hydroxypropylcellulose) (HPC) 92 % of control | dose: 100.0 mg/kg/injection, schedule: Q04DX002 (ip), vehicle: Klucel (hydroxypropylcellulose) (HPC) 110 % of control and 113 % of control | dose: 200.0 mg/kg/injection, schedule: Q04DX002 (ip), vehicle: Klucel (hydroxypropylcellulose) (HPC) 92 % of control | dose: 400.0 mg/kg/injection, schedule: Q04DX002 (ip), vehicle: Klucel (hydroxypropylcellulose) (HPC) 98 % of control

COc1ccc(Cl)cc1NC(=O)Nc1ccc(SC)cc1
inactive: dose: 100.0 mg/kg/injection, schedule: Q01DX009 (ip), vehicle: Klucel (hydroxypropylcellulose) (HPC) 98 % of control | dose: 200.0 mg/kg/injection, schedule: Q01DX009 (ip), vehicle: Klucel (hydroxypropylcellulose) (HPC) 94 % of control | dose: 400.0 mg/kg/injection, schedule: Q01DX009 (ip), vehicle: Klucel (hydroxypropylcellulose) (HPC) 96 % of control

O=c1c2cc([N+](=O)[O-])cc3c2-c2c4c(cc([N+](=O)[O-])cc14)c(O)c1cc([N+](=O)[O-])cc(c3=O)c21
inactive: dose: 100.0 mg/kg/injection, schedule: Q04DX003 (ip), vehicle: acetone 123 % of control | dose: 200.0 mg/kg/injection, schedule: Q04DX003 (ip), vehicle: acetone 120 % of control | dose: 266.0 mg/kg/injection, schedule: Q04DX003 (ip), vehicle: saline 111 % of control | dose: 400.0 mg/kg/injection, schedule: Q04DX003 (ip), vehicle: saline 116 % of control

ClN=C(c1ccccc1)c1ccccc1
inactive: dose: 12.0 mg/kg/injection, schedule: Q01DX009 (ip), vehicle: Klucel (hydroxypropylcellulose) (HPC) 110 % of control | dose: 25.0 mg/kg/injection, schedule: Q01DX009 (ip), vehicle: Klucel (hydroxypropylcellulose) (HPC) 102 % of control | dose: 50.0 mg/kg/injection, schedule: Q01DX009 (ip), vehicle: Klucel (hydroxypropylcellulose) (HPC) 107 % of control | dose: 100.0 mg/kg/injection, schedule: Q04DX003 (ip), vehicle: Klucel (hydroxypropylcellulose) (HPC) 100 % of control | dose: 200.0 mg/kg/injection, schedule: Q04DX003 (ip), vehicle: Klucel (hydroxypropylcellulose) (HPC) 98 % of control
